The results in this text go back to patent US9163060B2, “Tubulin inhibitors” (R&D BIOPHARMACEUTICALS GMBH, priority 2009, dated 2015).

Each structure is given as a SMILES string.

The assay concerns HT-29. The assay can be described thus: fluorometric resazurin-based anti-proliferative assay, HT-29. To be noted: Homo sapiens, HT-29 cancer cell line. The protocol:
Determination of the IC-50 Concentration Against Various Cancer Cell Lines
The anti-proliferative activity of some representative example compounds of the present invention was determined in-vitro using a fluorometric resazurin-based assay. Cancer cell proliferation and viability was quantified upon reduction of non-fluorescent resazurin into the fluorescent dye resorufin by metabolically active cells as described in Strotmann, U. J., et al., The dehydrogenase assay with resazurin: Practical performance as a monitoring system and pH-dependent toxicity of phenolic compounds. Ecotox. Environ. Safety 25, 79-89, (1993).
(In general: Alamar Blue is a resazurin reagent that responds to reducing activity.)

As to `CCCN(C(=O)C(NC(=O)C1CCCCN1C)[C@@H](C)CC)[C@H](C[C@@H](OC(C)=O)c1nc(C(=O)N[C@@H](Cc2ccccc2)C(=O)NCCO)cs1)C(C)C` (stereo partly drawn), the IC50 turned out to be 3.9 ± 0.7 nM.

`CC[C@H](C)C(NC(=O)C1CCCCN1C)C(=O)N(C)[C@H](C[C@@H](OC(C)=O)c1nc(C(=O)N[C@@H](Cc2ccccc2)C(=O)O)cs1)C(C)C` (stereo partly drawn) had an IC50 of 3.2 ± 0.4 nM.

On to `CCCO[C@H](C[C@H](C(C)C)N(CCC)C(=O)C(NC(=O)C1CCCCN1C)[C@@H](C)CC)c1nc(C(=O)N[C@@H](Cc2ccc(O)cc2)C(=O)O)cs1` (stereo partly drawn), for which the IC50 was 3.1 ± 0.6 nM.

Turning to `CCCN(C(=O)C(NC(=O)C1CCCCN1C)[C@@H](C)CC)[C@H](C[C@@H](OC(C)=O)c1nc(C(=O)N[C@@H](Cc2ccccc2)C(=O)O)cs1)C(C)C` (stereo partly drawn), half-maximal inhibition (IC50) required 4.5 ± 0.5 nM.

Compound `CCCN(C(=O)C(NC(=O)C1CCCCN1C)[C@@H](C)CC)[C@H](C[C@@H](OC(C)=O)c1nc(C(=O)N[C@@H](Cc2ccc(F)cc2)C(=O)O)cs1)C(C)C` (stereo partly drawn) returned an IC50 of 1 ± 0.2 nM.

Compound `CCCN(C(=O)C(NC(=O)C1CCCCN1C)[C@@H](C)CC)[C@H](C[C@@H](OCOC)c1nc(C(=O)N[C@@H](Cc2ccccc2)C(=O)O)cs1)C(C)C` (stereo partly drawn) came in with an IC50 of 51.1 ± 2.6 nM.

What is called IC50 is the concentration that gives 50% inhibition. A high value points to weaker potency.
